Results on 8 compounds are retold here after ChEMBL document CHEMBL1201862, “PubChem BioAssay data set” (2004).

Experiment [1] concerns the target Beta-2 adrenergic receptor (Homo sapiens, UniProt P07550). The experiment can be described thus: beta2AR agonists driving receptor internalization, dose response, cell-based, FAP fluorogen, flow cytometry, cherry pick 1 (AID 588763). The experiment is classed as functional. Background: In flow cytometry, cells or beads pass a laser one at a time.
In experiment [2] the target is T1, Apoptotic protease-activating factor 1 (Homo sapiens, UniProt O14727).
T1 sequence (O14727 whole entry): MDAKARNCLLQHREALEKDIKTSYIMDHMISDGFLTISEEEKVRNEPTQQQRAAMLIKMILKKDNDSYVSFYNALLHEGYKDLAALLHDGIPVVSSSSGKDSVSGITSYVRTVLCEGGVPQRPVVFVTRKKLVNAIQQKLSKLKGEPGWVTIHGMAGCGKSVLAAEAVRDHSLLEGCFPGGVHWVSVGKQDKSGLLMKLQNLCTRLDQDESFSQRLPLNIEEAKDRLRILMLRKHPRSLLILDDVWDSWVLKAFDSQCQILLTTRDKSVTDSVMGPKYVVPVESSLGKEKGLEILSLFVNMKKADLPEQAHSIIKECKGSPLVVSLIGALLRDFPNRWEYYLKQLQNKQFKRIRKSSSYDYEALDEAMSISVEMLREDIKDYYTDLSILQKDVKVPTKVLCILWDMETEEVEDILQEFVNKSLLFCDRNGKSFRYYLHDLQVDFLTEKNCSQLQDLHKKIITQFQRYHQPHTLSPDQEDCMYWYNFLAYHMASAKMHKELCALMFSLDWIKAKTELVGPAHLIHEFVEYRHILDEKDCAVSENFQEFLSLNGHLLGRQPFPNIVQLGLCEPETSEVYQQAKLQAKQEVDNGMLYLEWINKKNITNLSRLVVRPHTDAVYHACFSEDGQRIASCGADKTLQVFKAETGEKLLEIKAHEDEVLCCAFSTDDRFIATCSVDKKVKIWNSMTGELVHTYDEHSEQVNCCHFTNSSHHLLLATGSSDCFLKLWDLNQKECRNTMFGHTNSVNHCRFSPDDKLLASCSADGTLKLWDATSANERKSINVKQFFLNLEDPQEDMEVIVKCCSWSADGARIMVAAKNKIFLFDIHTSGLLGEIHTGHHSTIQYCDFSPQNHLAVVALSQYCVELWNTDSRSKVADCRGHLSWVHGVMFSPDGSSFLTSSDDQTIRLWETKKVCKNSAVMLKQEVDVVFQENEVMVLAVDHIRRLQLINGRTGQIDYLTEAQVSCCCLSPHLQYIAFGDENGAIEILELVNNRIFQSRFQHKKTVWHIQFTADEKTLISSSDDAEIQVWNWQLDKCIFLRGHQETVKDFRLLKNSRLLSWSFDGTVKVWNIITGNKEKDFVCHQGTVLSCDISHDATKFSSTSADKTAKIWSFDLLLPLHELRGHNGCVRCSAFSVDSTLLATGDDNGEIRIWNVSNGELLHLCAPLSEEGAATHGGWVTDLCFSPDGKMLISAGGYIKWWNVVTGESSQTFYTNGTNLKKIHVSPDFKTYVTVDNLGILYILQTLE
The experiment is classed as functional.

In experiment [3] the target is T2, Microphthalmia-associated transcription factor (Homo sapiens, UniProt O75030).
T2 sequence (O75030 whole entry): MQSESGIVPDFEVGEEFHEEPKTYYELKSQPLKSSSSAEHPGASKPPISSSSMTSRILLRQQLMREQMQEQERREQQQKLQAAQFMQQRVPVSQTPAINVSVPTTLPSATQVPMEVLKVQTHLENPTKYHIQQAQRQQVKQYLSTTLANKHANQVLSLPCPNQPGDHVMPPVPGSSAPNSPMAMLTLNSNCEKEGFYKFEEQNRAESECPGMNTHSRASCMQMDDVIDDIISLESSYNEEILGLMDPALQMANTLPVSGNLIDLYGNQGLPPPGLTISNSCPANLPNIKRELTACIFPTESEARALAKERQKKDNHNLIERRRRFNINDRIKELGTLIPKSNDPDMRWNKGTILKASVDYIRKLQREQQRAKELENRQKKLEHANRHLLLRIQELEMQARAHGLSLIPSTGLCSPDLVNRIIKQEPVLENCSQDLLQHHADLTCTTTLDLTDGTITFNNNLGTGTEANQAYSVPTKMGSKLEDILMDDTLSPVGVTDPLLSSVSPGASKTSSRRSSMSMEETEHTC
Kind of experiment: TRPM1 promoter luciferase signal decrease, dose response, MITF inhibitor project, cell-based, SK-MEL-5, cherry-picked, set 3 (AID 493073).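 Note: SK-MEL-5 melanoma cells with luciferase driven by the MITF target TRPM1 promoter.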 The experiment is classed as functional.

For experiment [4], the target named is T3, Endoribonuclease toxin MazF (Escherichia coli K-12, UniProt P0AE70).
T3 sequence (P0AE70 whole entry): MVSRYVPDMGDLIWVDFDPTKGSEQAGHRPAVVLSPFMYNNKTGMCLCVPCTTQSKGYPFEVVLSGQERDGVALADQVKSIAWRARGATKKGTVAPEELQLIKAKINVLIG
The experiment can be described thus: MazF endoribonuclease activators, SAR follow-up, biochemical, fluorescence, single-stranded RNA substrate (AID 588603). The experiment is classed as functional.

The target of experiment [5] is T3, Endoribonuclease toxin MazF. Kind of experiment: SAR analysis of small molecule activators of the MazEF TA System via a fluorescence-based single-stranded RNase assay counterscreen. [Related pubchem assays (depositor defined):AID504720, AID504743]. It is filed as functional. Background: A counterscreen serves to expose hits that act by an unwanted route or on another target.

The test system of the next experiment is MEF. The experiment can be described thus: SAR analysis of small molecule cytotoxicity of MazEF TA System activators in embryonic fibroblast (MEF) cells. [Related pubchem assays (depositor defined):AID504720, AID504743]. It is filed as functional. Conditions: Mus musculus.
In experiment [6] the target is T3, Endoribonuclease toxin MazF. The experiment can be described thus: MazF toxin RNase activators, dose response, biochemical, fluorescence, single-stranded RNA substrate, uHTS hits (AID 588481). The experiment is classed as functional.
Experiment [7] has the same target. The experiment can be described thus: fluorescent RNA oligo signal without MazF, dose response, counter-screen for MazEF activator project, biochemical, fluorescence, single-stranded RNase substrate (AID 588502). It is filed as functional.
Experiment [8] deals with T4, Nuclear receptor subfamily 0 group B member 1 (Homo sapiens, UniProt P51843).
T4 sequence (P51843 whole entry): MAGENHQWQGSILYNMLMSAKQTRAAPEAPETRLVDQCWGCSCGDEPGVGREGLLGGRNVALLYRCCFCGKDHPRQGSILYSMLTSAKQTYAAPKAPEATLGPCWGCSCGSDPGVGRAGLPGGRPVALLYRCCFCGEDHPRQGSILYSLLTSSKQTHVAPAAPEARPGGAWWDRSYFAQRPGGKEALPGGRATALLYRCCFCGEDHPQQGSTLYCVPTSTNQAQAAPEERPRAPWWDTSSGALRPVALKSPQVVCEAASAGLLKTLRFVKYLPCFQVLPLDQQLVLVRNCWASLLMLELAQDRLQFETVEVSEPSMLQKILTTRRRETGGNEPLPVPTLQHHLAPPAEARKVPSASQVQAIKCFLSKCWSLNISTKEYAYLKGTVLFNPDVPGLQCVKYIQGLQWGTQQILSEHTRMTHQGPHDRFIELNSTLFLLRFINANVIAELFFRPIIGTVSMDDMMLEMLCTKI
Kind of experiment: Luminescence-based cell-based high throughput dose response assay for inhibitors of the orphan nuclear receptor subfamily 0, group B, member 1 (DAX1; NR0B1). [Related pubchem assays (depositor defined):AID504766, AID504790]. It is filed as functional.

For experiment [9], the system named is HEK293. The experiment can be described thus: cells. It is filed as functional, cell-based. Conditions: Homo sapiens.
In a further experiment the target is Cytochrome P450 2C9 (Homo sapiens, UniProt P11712).
A further experiment deals with Cytochrome P450 2C19 (Homo sapiens, UniProt P33261). Kind of experiment: Cytochrome panel assay with activity outcomes. Panel member name: p450-cyp2c19 Compounds with AC50 equal or less than 10 uM are considered active. The experiment is classed as functional. The note with it: read-out: AC50.
The subject of another experiment is Jurkat. Kind of experiment: SAR Analysis of small molecule inhibitors of T-cell specific antigen receptor-induced NF-kB activation in a Jurkat cell line using a luminescence assay - Set 2. [Related pubchem assays (depositor defined):AID435003, AID435012, AID465]. The experiment is classed as functional, cell-based. Conditions: Homo sapiens.
Experiment [10] can be described thus: cytotoxicity in HEK-293T cells, dose response, cytotoxicity control for BCR NF-kB inhibitor project, luminescence, B-cell screen hits (AID 489021).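 Note: HEK-293T cells carrying an NF-kB luciferase reporter; cells exposed to compound for about 14 hours before viability readout.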 The experiment is classed as functional, cell-based.
Experiment [11] deals with HEK293. Kind of experiment: SAR Analysis of small molecule inhibitors of T-cell specific antigen receptor-induced NF-kB activation in a HEK-293T cell line using a luminescence assay - Set 2. [Related pubchem assays (depositor defined):AID435003, AID435012, AID489026]. It is filed as functional, cell-based. Conditions: Homo sapiens.
In experiment [12] the test system is HEK293. The experiment can be described thus: cytotoxicity in HEK293T NF-kB-Luc cells, SAR follow-up, cytotoxicity control for NF-kB activator project, cell-based, resazurin fluorescence (AID 493251). The experiment is classed as functional. Conditions: Homo sapiens. In general terms: Resazurin is reduced to fluorescent resorufin, in cell work by metabolically active cells.

For orientation: EC50 means the concentration at which the effect is half-maximal. What is called IC50 is the midpoint of a concentration-inhibition curve. A word on the AC50: it is the midpoint of the concentration-response curve, whichever way the signal moves. In general, CC50 refers to the concentration at which the toxic effect on the cells reaches its halfway point.

Calls of active or inactive are those of the source.

Chain of Beta-2 adrenergic receptor (P07550 whole entry): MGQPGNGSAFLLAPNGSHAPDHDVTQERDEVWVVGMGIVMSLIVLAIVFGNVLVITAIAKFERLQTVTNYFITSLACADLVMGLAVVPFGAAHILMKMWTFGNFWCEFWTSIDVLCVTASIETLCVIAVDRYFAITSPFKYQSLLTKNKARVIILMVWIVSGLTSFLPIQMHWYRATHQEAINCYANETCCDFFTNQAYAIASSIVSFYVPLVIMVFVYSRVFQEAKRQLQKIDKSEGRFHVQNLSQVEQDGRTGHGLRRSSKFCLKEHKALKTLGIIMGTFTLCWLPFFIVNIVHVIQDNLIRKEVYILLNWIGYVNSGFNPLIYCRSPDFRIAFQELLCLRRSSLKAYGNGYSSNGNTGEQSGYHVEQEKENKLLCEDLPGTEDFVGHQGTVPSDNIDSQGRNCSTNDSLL
Chain of Cytochrome P450 2C19 (P33261 whole entry): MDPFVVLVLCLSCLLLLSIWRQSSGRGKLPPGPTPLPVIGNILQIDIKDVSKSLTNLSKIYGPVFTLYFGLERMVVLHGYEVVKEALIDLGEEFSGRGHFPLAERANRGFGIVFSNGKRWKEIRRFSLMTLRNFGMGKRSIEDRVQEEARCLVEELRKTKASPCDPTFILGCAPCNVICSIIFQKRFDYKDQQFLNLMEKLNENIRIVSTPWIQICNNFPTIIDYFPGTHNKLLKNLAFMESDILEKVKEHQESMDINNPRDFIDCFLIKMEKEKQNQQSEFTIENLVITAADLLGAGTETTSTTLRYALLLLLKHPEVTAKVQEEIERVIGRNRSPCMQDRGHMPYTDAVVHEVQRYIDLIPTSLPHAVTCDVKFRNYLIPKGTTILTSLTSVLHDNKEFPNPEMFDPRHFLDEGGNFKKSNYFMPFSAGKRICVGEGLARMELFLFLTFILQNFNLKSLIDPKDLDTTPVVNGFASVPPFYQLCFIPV
Chain of Cytochrome P450 2C9 (P11712 whole entry): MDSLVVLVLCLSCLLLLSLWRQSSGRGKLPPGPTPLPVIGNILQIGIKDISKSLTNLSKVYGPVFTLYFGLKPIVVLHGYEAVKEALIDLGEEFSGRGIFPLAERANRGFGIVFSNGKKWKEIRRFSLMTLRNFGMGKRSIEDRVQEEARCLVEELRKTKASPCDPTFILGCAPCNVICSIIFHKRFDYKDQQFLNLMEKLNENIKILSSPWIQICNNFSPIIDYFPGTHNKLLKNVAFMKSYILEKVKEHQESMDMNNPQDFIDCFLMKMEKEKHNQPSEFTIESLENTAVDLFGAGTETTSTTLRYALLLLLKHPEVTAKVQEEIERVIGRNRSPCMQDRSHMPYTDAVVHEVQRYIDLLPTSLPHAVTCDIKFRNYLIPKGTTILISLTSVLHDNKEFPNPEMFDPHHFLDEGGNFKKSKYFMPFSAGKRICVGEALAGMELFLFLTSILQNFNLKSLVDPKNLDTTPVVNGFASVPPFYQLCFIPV

`CCOc1ccc(CNC(=O)c2ccc(NC(=O)C3=CSCCO3)cc2)cc1`: in experiment [1], the EC50 was 0.0608 µM (active).
On to `NC(=O)C1CCN(C2=C(NS(=O)(=O)c3ccc(Br)cc3)C(=O)c3ccccc3C2=O)CC1`, for which the IC50 in experiment [2] is 16.9 µM (active). In addition, the AC50 in experiment [3] is 11.9 µM (active).
As for `N#Cc1cc2ccccc2nc1SCC(=O)Nc1ccccc1N1CCOCC1`, the EC50 in [4] is 5.15 µM (active); in experiment [5], > 99 µM (inactive); in experiment [6], 17.5 µM (active); in [7], > 99 µM (inactive). For the same compound, the CC50 in the experiment with MEF was > 99 µM (inactive).
As for `CC(=O)c1c(C)[nH]c(C(=O)Nc2ccc(Cl)c(S(=O)(=O)N(C)C)c2)c1C`, the IC50 (in [8]; with HEK293 [9]) was > 67.5 µM (inactive) throughout.
In the case of `CNC(=O)CCc1nc(-c2ccc(C(C)(C)C)cc2)no1`, the half-maximal activity concentration (AC50) is 0.355 µM (inconclusive) on Cytochrome P450 2C9 and 39.8 µM (inconclusive) on Cytochrome P450 2C19. Also, the IC50 with Jurkat was > 79 µM (inactive); in experiment [10] it was > 80 µM (inactive); in the experiment with HEK293 [11], 53.1 µM (inactive); in the experiment with HEK293 [12], > 80 µM (inactive).
Consider `CN1C(C(=O)Nc2cccc(O)c2)=CC(c2ccco2)=NS1(=O)=O`, for which the IC50 (in [8]; in the experiment with HEK293 [9]) was > 67.6 µM (inactive) in each case.
As for `C=CCc1ccc(OCCOc2ccc(/C=N/n3cnnc3)cc2OCC)c(OC)c1`, in [1], the EC50 was 0.587 µM (active).
Take `COc1cc(C(=O)Oc2cc(N)n(S(=O)(=O)c3ccc(F)cc3)n2)cc(OC)c1OC`: the EC50 in experiment [4] is 3.48 µM (active); in [5], > 99 µM (inactive); in experiment [6], 14.8 µM (active); in [7] it was > 99 µM (inactive). In addition, the CC50 with MEF is 85.3 µM (active).
